Key:
Assay in all cases: Post-emergence herbicidal action, greenhouse pot trial
Format in all cases: in vivo
[1] = tested on: Abutilon theophrasti (ABUTH); settings: 320 g/ha, visual rating after about 3 weeks; for pest or weed control at 320 g/ha: Abutilon theophrasti, 504 h, read-out: Post-emergence effect at 320 g/ha against ABUTH in %
Procedure: (§1) Seeds of monocotyledonous and dicotyledonous weeds and crop plants are placed in sandy loam in plastic or organic planting pots, covered with soil and cultivated in a greenhouse under controlled growth conditions. 2 to 3 weeks after sowing, the trial plants are treated at the one-leaf stage. The compounds of the invention, formulated in the form of wettable powders (WP) or as emulsion concentrates (EC), are then sprayed onto the green parts of the plants as aqueous suspension or emulsion with addition of 0.5% additive at a water application rate equivalent to 600 l/ha. After about 3 weeks of keeping the trial plants in the greenhouse under optimum growth conditions, the effect of the preparations is rated visually in comparison to untreated controls. For example, 100% activity=the plants have died, 0% activity=like control plants.
(§2) Tables B1 to B14 below show the effects of selected compounds of the general formula (I) according to Table 1 on various harmful plants and at an application rate corresponding to 320 g/ha or lower, which were obtained by the trial procedure specified above. The appendices “a”, “b” and “c” give differentiation by dosage used with otherwise the same harmful plants tested.
(§3) As shown by results from Tables B1 to B19, inventive compounds of the general formula (I) in the case of post-emergence treatment have good herbicidal efficacy against harmful plants, for example Abutilon theophrasti (ABUTH), Alopecurus myosuroides (ALOMY), Amaranthus retroflexus (AMARE), Avena fatua (AVEFA), Digitaria sanguinalis (DIGSA), Echinochloa crus-galli (ECHCG), Bassia scoparia (KCHSC), Lolium rigidum (LOLRI), Matricaria inodora (MATIN), Pharbitis purpurea (PHBPU), Polygonum convolvulus (POLCO), Setaria viridis (SETVI), Veronica persica (VERPE) and Viola tricolor (VIOTR) at an application rate of 320 g of active substance or less per hectare, and good crop plant compatibility in the case of organisms such as Oryza sativa (ORYSA), Zea mays (ZEAMX), Brassica napus (BRSNW), Glycine max (GLXMA) and Triticum aestivum (TRZAS) at an application rate of 320 g or less per hectare.

[2] = tested on: Amaranthus retroflexus (AMARE); settings: 320 g/ha, visual rating after about 3 weeks; for pest or weed control at 320 g/ha: Amaranthus retroflexus, 504 h, read-out: Post-emergence effect at 320 g/ha against AMARE in %
Procedure: as §1, §2, §3

Avena fatua (AVEFA) = settings: Avena fatua, 504 h, 320 g/ha, visual rating after about 3 weeks, read-out: Post-emergence effect at 320 g/ha against AVEFA in %
Procedure: as §1, §2, §3

Bassia scoparia (KCHSC) = settings: Bassia scoparia, 504 h, read-out: Post-emergence effect against KCHSC
Procedure: as §1, §2, §3

[3] = tested on: Digitaria sanguinalis (DIGSA); settings: 320 g/ha, visual rating after about 3 weeks; for pest or weed control at 320 g/ha: Digitaria sanguinalis, 504 h, read-out: Post-emergence effect at 320 g/ha against DIGSA in %
Procedure: as §1, §2, §3

[4] = tested on: Echinochloa crus-galli (ECHCG); settings: 320 g/ha, visual rating after about 3 weeks; for pest or weed control at 320 g/ha: Echinochloa crus-galli, 504 h, read-out: Post-emergence effect at 320 g/ha against ECHCG in %
Procedure: as §1, §2, §3

[5] = tested on: Matricaria inodora (MATIN); settings: visual rating after about 3 weeks; for pest or weed control at 320 g/ha / pest or weed control at 80 g/ha: Tripleurospermum inodorum, 504 h; for pest or weed control at 320 g/ha: read-out: Post-emergence effect at 320 g/ha against MATIN in %; for pest or weed control at 80 g/ha: read-out: Post-emergence effect at 80 g/ha against MATIN in %
Procedure: as §1, §2, §3

[6] = tested on: Pharbitis purpurea (PHBPU); settings: visual rating after about 3 weeks; for pest or weed control at 80 g/ha / pest or weed control at 320 g/ha: Ipomoea purpurea, 504 h; for pest or weed control at 80 g/ha: read-out: Post-emergence effect at 80 g/ha against PHBPU in %; for pest or weed control at 320 g/ha: read-out: Post-emergence effect at 320 g/ha against PHBPU in %
Procedure: as §1, §2, §3

[7] = tested on: Polygonum convolvulus (POLCO); settings: visual rating after about 3 weeks; for pest or weed control at 320 g/ha: Fallopia convolvulus, 504 h, read-out: Post-emergence effect at 320 g/ha against POLCO in %
Procedure: as §1, §2, §3

Setaria viridis (SETVI) = settings: 320 g/ha, visual rating after about 3 weeks; for pest or weed control at 320 g/ha: Setaria viridis, 504 h, read-out: Post-emergence effect at 320 g/ha against SETVI in %
Procedure: as §1, §2, §3

Viola tricolor (VIOTR) = tested on: Viola tricolor (VIOTR)
Procedure: as §1, §2, §3

[8] = Viola tricolor, 504 h, 320 g/ha, read-out: Post-emergence effect against VIOTR
[9] = Viola tricolor, 504 h, 80 g/ha, read-out: Post-emergence effect against VIOTR

CSC(Oc1nn(-c2ncccc2F)c(-c2ccc(F)nc2)c1Br)C(=O)O (single isomer, unassigned) [Example I-24]
pest or weed control at 320 g/ha [1]: 80% | pest or weed control at 320 g/ha [2]: 80% | pest or weed control at 320 g/ha (Avena fatua (AVEFA)): 80% | pest or weed control at 80 g/ha (Bassia scoparia (KCHSC)): 80% | pest or weed control at 320 g/ha (Bassia scoparia (KCHSC)): 80% | pest or weed control at 320 g/ha [3]: 90% | pest or weed control at 320 g/ha [4]: 90% | pest or weed control at 320 g/ha ([5]; 320 g/ha): 80% | pest or weed control at 80 g/ha [6]: 90% | pest or weed control at 320 g/ha ([6]; 320 g/ha): 90% | pest or weed control at 320 g/ha ([7]; 320 g/ha): 90% | pest or weed control at 320 g/ha (Setaria viridis (SETVI)): 90% | pest or weed control at 320 g/ha (Viola tricolor (VIOTR); [8]): 90%

CCOC(=O)C(Oc1nn(-c2ncccc2F)c(-c2ccc(F)nc2)c1Br)SC (single isomer, unassigned) [Example I-29]
Post-emergence effect at 320 g/ha against ABUTH in % [1]: 90% | Post-emergence effect at 320 g/ha against AMARE in % [2]: 80% | pest or weed control at 80 g/ha (Bassia scoparia (KCHSC)): 80% | pest or weed control at 320 g/ha (Bassia scoparia (KCHSC)): 90% | Post-emergence effect at 320 g/ha against DIGSA in % [3]: 90% | Post-emergence effect at 320 g/ha against ECHCG in % [4]: 90% | Post-emergence effect at 320 g/ha against MATIN in % ([5]; 320 g/ha): 80% | Post-emergence effect at 320 g/ha against PHBPU in % ([6]; 320 g/ha): 90% | Post-emergence effect at 80 g/ha against POLCO in % ([7]; 80 g/ha): 90% | Post-emergence effect at 320 g/ha against POLCO in % ([7]; 320 g/ha): 90% | Post-emergence effect at 320 g/ha against SETVI in % (Setaria viridis (SETVI)): 90% | Post-emergence effect against VIOTR (Viola tricolor (VIOTR); 80 g/ha): 80% | Post-emergence effect against VIOTR (Viola tricolor (VIOTR); 320 g/ha): 90%

CCOC(=O)C(Oc1nn(-c2cc(F)ccc2F)c(-c2cncc(F)c2)c1I)SC (centres unmarked) [Example I-02]
pest or weed control at 320 g/ha [4]: 90% | pest or weed control at 80 g/ha [5]: 80% | pest or weed control at 320 g/ha ([5]; 320 g/ha): 90% | pest or weed control at 320 g/ha (Setaria viridis (SETVI)): 80% | pest or weed control at 80 g/ha (Viola tricolor (VIOTR); [9]): 80% | pest or weed control at 320 g/ha (Viola tricolor (VIOTR); [8]): 90%

COC(=O)C(Oc1nn(-c2cc(F)ccc2F)c(-c2cncc(F)c2)c1Br)SC (centres unmarked) [Example I-07]
pest or weed control at 320 g/ha [3]: 90% | pest or weed control at 320 g/ha [4]: 90% | pest or weed control at 80 g/ha [5]: 80% | pest or weed control at 320 g/ha ([5]; 320 g/ha): 90% | pest or weed control at 320 g/ha (Setaria viridis (SETVI)): 90% | pest or weed control at 20 g/ha (Viola tricolor (VIOTR); Viola tricolor, 504 h, 20 g/ha, read-out: Post-emergence effect against VIOTR): 80% | pest or weed control at 80 g/ha (Viola tricolor (VIOTR); [9]): 90% | pest or weed control at 320 g/ha (Viola tricolor (VIOTR); [8]): 90%

CCOC(=O)C(Oc1nn(-c2ncccc2F)c(-c2ccc(F)nc2)c1C(F)(F)F)SC (centres unmarked) [Example I-09]
pest or weed control at 320 g/ha [1]: 80% | pest or weed control at 320 g/ha [4]: 80% | pest or weed control at 320 g/ha ([5]; 320 g/ha): 80% | pest or weed control at 320 g/ha ([6]; 320 g/ha): 90% | pest or weed control at 320 g/ha ([7]; 320 g/ha): 90% | pest or weed control at 320 g/ha (Viola tricolor (VIOTR); [8]): 90%

CCOC(=O)C(Oc1nn(-c2ncccc2F)c(-c2ccc(F)cc2F)c1Br)SC (centres unmarked) [Example I-14]
pest or weed control at 320 g/ha [1]: 80% | pest or weed control at 320 g/ha [2]: 80% | pest or weed control at 320 g/ha [3]: 80% | pest or weed control at 320 g/ha ([6]; 320 g/ha): 80% | pest or weed control at 320 g/ha ([7]; 320 g/ha): 90% | pest or weed control at 320 g/ha (Setaria viridis (SETVI)): 80%

CCOC(=O)C(Oc1nn(-c2cnccn2)c(-c2ccc(F)nc2)c1Br)SC (centres unmarked) [Example I-17]
pest or weed control at 320 g/ha [2]: 80% | pest or weed control at 320 g/ha (Avena fatua (AVEFA)): 80% | pest or weed control at 320 g/ha [3]: 80% | pest or weed control at 320 g/ha [4]: 80% | pest or weed control at 80 g/ha [6]: 80% | pest or weed control at 320 g/ha ([6]; 320 g/ha): 80% | pest or weed control at 320 g/ha (Setaria viridis (SETVI)): 80%
